Consider six molecules from publication PMC8233378, “Acyclic nucleoside phosphonates with adenine nucleobase inhibit Trypanosoma brucei adenine phosphoribosyltransferase in vitro” (Scientific Reports, 2021).

Data set [1] can be described thus: Cytotoxicity of the prodrug in human cells (CellTiter-Glo 2.0), NHDF. The class given is cell-based. To be noted: human, normal human dermal fibroblasts (NHDF), NHDF. As to the method:
(§1) Compound cytotoxicity was evaluated in Hela S3 cancer cells and non-tumor human dermal fibroblasts (NHDF). All cell lines were obtained from ATCC (Manassas, VA, USA). The cytotoxicity was assayed using CellTiter-Glo® 2.0 detection reagent (Promega, Madison, USA) according to the manufacturer’s protocol.
A general note: ATP-based viability assays read luminescence as a measure of living cells.

Data set [2] relates to T. brucei BSF427. The data set can be described thus: Alamar Blue assay, BSF427 cells. The data set is classed as cell-based. The note with it: Trypanosoma brucei, read-out: T. brucei BSF EC50. As to the method:
The bloodstream form (BSF) T. b. brucei Lister 427 and single marker (SM) strains were cultivated in HMI-11 medium and 10% FBS at 37 °C in a humidified atmosphere at 5% CO2[26]. HMI-11 medium containing dialyzed 10% FBS and only one defined source of the purine base, adenine, was used for selected experiments (50 μM, HMI-11^adenine). The SM cell line constitutively expressing ectopic T7 RNA polymerase and tetracycline repressor was used for the tetracycline-inducible expression of dsRNA and V5-tagged proteins. To generate SKD APRT1 and DKD APRT1/2 RNAi cell lines, the 524 bp and 537 bp fragments of the aprt-I (Tb927.7.1780) and aprt-II (Tb927.7.1790) open reading frames, respectively, were PCR amplified from T. brucei BSF427 genomic DNA with the oligonucleotides (Supplementary File S1). The APRT1 fragment was cloned into the p2T7-TABlue, while the APRT2 fragment was cloned into, into the p2T7-177 plasmid. The p2T7-TABlue plasmid containing the APRT1 fragment was electroporated to SM cells which were subjected to selection with hygromycin (5 µg/ml). Verified SKD APRT1 cell line was then transfected with Not-1 linearized p2T7-177 plasmid containing the APRT2 fragment and the resulting DKD APRT1/2 cell line was selected with phleomycin (2.5 µg/ml). For the inducible expression of V5-tagged APRT1 andAPRT2, the coding sequences of the respective genes were PCR amplified using oligonucleotides listed in Supporting Information S1. The obtained PCR fragments were cloned into the pT7_N-term-V5 vector[6] using BglII or BamHI and XbaI restriction enzymes. Plasmids were then transfected to SM BSF cells. The resulting transfectants were established in medium containing puromycin (0.1 µg/ml). The induction of the dsRNA or tagged proteins was triggered by the addition of 1 µg/ml of tetracycline into the medium.
An Alamar Blue Assay was performed in a 96-well plate format to screen for sensitivity of T. brucei BSF cells to ANPs as previously published. The EC50 values were calculated using non-linear regression in GraphPad Prism 9.
In general terms: Resazurin is reduced to fluorescent resorufin, in cell work by metabolically active cells.

The test system of data set [3] is T. brucei BSF cells. The data set can be described thus: Cell cycle analysis of treated trypanosomes (microscopy, flow cytometry with propidium iodide). The class given is cell-based, Trypanosoma brucei. To be noted: for distribution of cell cycle stages by flow cytometry (DNA content): 1 to 16 µM, 12 h, propidium iodide. An excerpt:
The inhibition of the growth of T. brucei BSF in HMI-11 medium in single micromolar EC50 values (Table 1) was somewhat surprising considering the dispensability of APRT enzymes for these cells. […] To get deeper insights into the in vivo action of ANPs on APRT enzyme we tested their cytotoxicity on wild type cells grown in HMI-11^adenine medium. In this medium, the cells rely on the activity of the APRT enzyme to produce AMP and other […]. […] To corroborate this observation, we also tested cells with induced ectopic expression of V5-tagged APRT1 in both types of media and in the presence of the selected ANPs. […] The changes in the distribution of different cell cycle stages within a population were further assessed by flow cytometry assaying the DNA content by staining the cells with propidium iodide (Fig. 8A).
BFS trypanosomes in log phase were resuspended in HMI-11 medium to a density of 2 × 10^5 cells ml^−1. Test compounds at concentrations ranging from 1 to 16 µM were added to the cell suspension followed by 12 h incubation at 37 °C. The cell cycle analysis was performed as described previously. Briefly, approximately 2 × 10^6 cells were washed with PBS and fixed in 1 ml of 70% methanol in 1 × PBS and stored at 4 °C overnight. Following a PBS wash, samples were incubated with 10 µg/ml propidium iodide and 9.6 µg/ml of RNaseA at 37 °C for 45 min. Samples were analyzed on a FACS Canto II (BD) collecting 10,000 gated events.
(A flow cytometer gives signals particle by particle.)

Data set [4] is described as follows: Cytotoxicity of the prodrug in human cells (CellTiter-Glo 2.0), HeLa S3. The data set is classed as cell-based. To be noted: human, HeLa S3 cells; HeLa S3, 10 µM; read-out: Cytotoxicity of prodrug: HeLaS3 viability. How it is done: as §1
Data set [5] relates to Leishmania donovani APRT1. Further details: method as in PMID 11900545. The note with it: substrate of Leishmania donovani APRT1; cited from earlier work.
Substrate in data set [6]: Nc1ncnc2nc[nH]c12
Nature of the data set: purified protein, by the assay type. To be noted: other: substrate of T. brucei APRT1; pH 8.4; 25.0 °C.

Setting [7] is: BSF427, HMI-11^adenine medium (50 μM adenine as sole purine).

Where two headings read alike, the source gives them in different places.

Broadly, the viability is the share of living cells, or the viability signal relative to a control. One may read the EC50 as the concentration at which the effect is half-maximal. In the case of `CC(C)OC(=O)[C@H](Cc1ccccc1)NP(=O)(CSCCCn1cnc2c(N)ncnc21)N[C@@H](Cc1ccccc1)C(=O)OC(C)C` [24a, 9-(5-(Bis((S-1-isopropoxycarbonyl-2-phenylethyl)amino)phosphoryl)-4-thiapentyl)adenine], the results for the viability at 10 µM in data set [1] and in data set [4] were 89% and 99%, respectively. For the same molecule, the EC50 in data set [2] (setting [7]) came out at 6.36 µM; in data set [2] (BSF427, HMI-11 medium), 6.16 µM. In addition, in data set [3], the “direct microscopic observation of exposed T. brucei cells” value is “problems in the cell cycle”. Besides, the “distribution of cell cycle stages by flow cytometry (DNA content)” value in data set [3] is reported as “increase in the number of cells in G1-phase”.
`CC(C)OC(=O)[C@H](Cc1ccccc1)NP(=O)(CCSCCn1cnc2c(N)ncnc21)N[C@@H](Cc1ccccc1)C(=O)OC(C)C` [24b, 9-(5-(Bis((S-1-isopropoxycarbonyl-2-phenylethyl)amino)phosphoryl)-3-thiapentyl)adenine]: the viability at 10 µM in data set [1] was determined as 89%; in data set [4], 98%. Further, the EC50 in data set [2] (setting [7]) was determined as 6.16 µM; in data set [2] (BSF427, HMI-11 medium), 6.36 µM. In addition, in data set [3], the “direct microscopic observation of exposed T. brucei cells” value is recorded as “problems in the cell cycle”. For the same molecule, the “distribution of cell cycle stages by flow cytometry (DNA content)” value in data set [3] is listed as “increase in the number of cells in G1-phase”.
As a reminder, the Km is the substrate concentration at which the rate is half of its maximum. Turning to `Nc1ncnc2[nH]cnc12` [adenine], in data set [5], the Kcat is 17.9 s⁻¹ and the Km was 2.3 ± 1.1 µM.
For `CCOC(=O)[C@H](Cc1ccccc1)NP(=O)(COCC(COCP(=O)(N[C@@H](Cc1ccccc1)C(=O)OCC)N[C@@H](Cc1ccccc1)C(=O)OCC)Cn1cnc2c(N)ncnc21)N[C@@H](Cc1ccccc1)C(=O)OCC` [compound 25, Tetra-(L-phenylalanineethyl ester) prodrug of {[(2-[(adenin-9-yl)methyl]propane-1,3-diyl)bis(oxy)]bis(methylene)}diphosphonic acid], the viability at 10 µM in data set [1] turned out to be 90%; in data set [4] it was 99%. Besides, the EC50 in data set [2] (BSF427, HMI-11 medium) amounted to 3.7 µM.
The corresponding values for `CCOC(=O)[C@H](Cc1ccccc1)NP(=O)(CCOCC(Cn1cnc2c(N)ncnc21)OCCP(=O)(N[C@@H](Cc1ccccc1)C(=O)OCC)N[C@@H](Cc1ccccc1)C(=O)OCC)N[C@@H](Cc1ccccc1)C(=O)OCC` (stereo partly drawn) [compound 26, Tetra-(L-phenylalanineethyl ester) prodrug of (2-[3-(adenin-9-yl)-2-(2-bis(hydroxyphosphoryl)ethoxy)propoxy]ethyl}phosphonic acid] are 88%, 100% and 1.55 µM.

B1: recombinant T. brucei APRT1 (Trypanosoma brucei brucei TREU927) (protein)
chain: SLVEVLPNYFTLSKDSPLRKKFEKVYKWYSPAFSPHDVPRFAEVGNITENPEVMRGIRDFFVDRYKNLQQPITHILGFDSRGFLLGPMIAVELNVPFVLIRKANKIAGVIIKSEPYTKEYAAESEECMTVRFGSFDKNSRVVLIDDVIATGGTMLAGVQLVDACGATLVEVAGILGLTFLKGTQPAHTFAGGRYSNVPFVTLVDETVLSDENCGDPLHHKGSRIISCAEAKKLI
The term kcat denotes the number of substrate molecules converted per active site and unit of time at saturation. Turning to B1, in data set [6], the Km is 8.7 ± 1.9 µM and the kcat came to 0.82 s⁻¹.
